Reference: patent US20080045567A1, “Therapeutic Agent for Hyperlipemia and Therapeutic Agent for Diabetes” (Kowa Co., Ltd, priority 2004, published 2008)

What was measured:
blood triglycerides [1] = assay: Lowering of blood triglycerides by combined administration of sodium salt of compound A and calcium salt of pitavastatin in rats (Example 1); assay type: in vivo, male Wistar strain rats; settings: rat; for blood triglycerides in comparison with the control group (in words): orally 14 days, Dunnett's test; for Reduction rate of blood triglycerides (%): blood collected after 18 h fast, vs control group
Method: The effect of lowering blood triglycerides by combined administration of sodium salt of the compound A and calcium salt of pitavastatin was determined by the following method. Six-week-old male Wistar strain rats (Nippon Ikagaku Jikken Doubutsu Kabushiki Kaisha) were used for the test. Throughout the experimental period, the rats were fed in a rearing room maintained at a light-dark cycle (light period lit by room lamp: 7 am to 7 pm), a temperature of 23±3 degrees C., and a humidity of 55±15%, and were allowed free access to solid feed (CE-2: CLEA Japan, Inc.) and tap water. Calcium salt of pitavastatin and sodium salt of the compound A were suspended in an aqueous solution of 0.5% by mass of sodium carboxymethylcellulose (Iwai Chemicals Co., Ltd.) and prepared so that the dose amount became 2 mL/kg. Since calcium salt of pitavastatin contained 9.43% by mass of water, 1.1-fold by mass of the dose amount was weighed to correct. The suspension was refrigerated (4 degrees C.) and kept in a light-resistant bottle, and its preparation was carried out every 7 days. Thirty-two rats were divided into four groups (eight rats per each group) so that blood total cholesterol and blood triglycerides are averaged. That is, the four groups consisted of a control group, a group of calcium salt of pitavastatin alone (10 mg/kg), a group of sodium salt of the compound A alone (1 mg/kg), and a group of a combination of calcium salt of pitavastatin (10 mg/kg) and sodium salt of the compound A (1 mg/kg). The drugs were orally administered once a day (at 4 pm) for 14 days repeatedly, and the control group received orally the aqueous solution of 0.5% by mass of sodium carboxymethylcellulose at 2 mL/kg. All the groups were fasted for 18 hours after the final administration. Then, blood was collected and blood triglycerides were determined. Multigroup comparison between the control group and drug-administered group was performed with Dunnett's multiple comparison test after Bartlett's test for analysis of variance, and a significance level lower than 5% was considered to indicate significant difference.

blood triglycerides [2] = assay: Lowering of blood triglycerides by combined administration of sodium salt of compound A and calcium salt of atorvastatin in rats (Example 2); assay type: in vivo, male Wistar strain rats; settings: rat; for blood triglycerides in comparison with the control group (in words): orally 14 days, Dunnett's test; for Reduction rate of blood triglycerides (%): blood collected after 18 h fast, vs control group
Text: Six-week-old male Wistar strain rats (Nippon Ikagaku Jikken Doubutsu Kabushiki Kaisha) were used for the test. Throughout the experimental period, the rats were fed in a rearing room maintained at a light-dark cycle (light period lit by room lamp: 7 am to 7 pm), a temperature of 23±3 degrees C., and a humidity of 55±15%, and were allowed free access to solid feed (CE-2: CLEA Japan, Inc.) and tap water.
Calcium salt of pitavastatin and sodium salt of the compound A were suspended in an aqueous solution of 0.5% by mass of sodium carboxymethylcellulose (Iwai Chemicals Co., Ltd.) and prepared so that the dose amount became 2 mL/kg. Since calcium salt of pitavastatin contained 9.43% by mass of water, 1.1-fold by mass of the dose amount was weighed to correct. The suspension was refrigerated (4 degrees C.) and kept in a light-resistant bottle, and its preparation was carried out every 7 days.
Thirty-two rats were divided into four groups (eight rats per each group) so that blood total cholesterol and blood triglycerides are averaged. That is, the four groups consisted of a control group, a group of calcium salt of pitavastatin alone (10 mg/kg), a group of sodium salt of the compound A alone (1 mg/kg), and a group of a combination of calcium salt of pitavastatin (10 mg/kg) and sodium salt of the compound A (1 mg/kg). The drugs were orally administered once a day (at 4 pm) for 14 days repeatedly, and the control group received orally the aqueous solution of 0.5% by mass of sodium carboxymethylcellulose at 2 mL/kg. All the groups were fasted for 18 hours after the final administration. Then, blood was collected and blood triglycerides were determined.
The effect of lowering blood triglycerides by combined administration of sodium salt of the compound A and calcium salt of atorvastatin was determined as in Example 1.

[3] = 1 mg/kg orally once a day for 14 days

Structure (SMILES): O=C(O)C[C@H](O)C[C@H](O)/C=C/c1c(C2CC2)nc2ccccc2c1-c1ccc(F)cc1 [Pitavastatin Ca, (3R,5S,6E)-7-[2-cyclopropyl-4-(4-fluorophenyl)-3-quinolyl]-3,5-dihydroxy-6-heptenoic acid]
- blood triglycerides in comparison with the control group (in words) (blood triglycerides [1]; 10 mg/kg alone): a tendency to be lowered
- Reduction rate of blood triglycerides (%) (blood triglycerides [1]; 10 mg/kg orally once a day for 14 days): 20%

Structure (SMILES): O=C(O)C(Cl)(Cl)CCCCCCCCCCc1ccc(Cl)cc1 [Compound A Na, 12-(4-chlorophenyl)-2,2-dichlorododecanoic acid]
- blood triglycerides in comparison with the control group (in words) (blood triglycerides [1]; 1 mg/kg alone, p<0.05): a significant reduction
- Reduction rate of blood triglycerides (%) (blood triglycerides [1]; [3]): 25%
- blood triglycerides in comparison with the control group (in words) (blood triglycerides [2]; 1 mg/kg alone, p<0.05): a significant reduction
- Reduction rate of blood triglycerides (%) (blood triglycerides [2]; [3]): 25%

Structure (SMILES): CC(C)c1c(C(=O)Nc2ccccc2)c(-c2ccccc2)c(-c2ccc(F)cc2)n1CC[C@@H](O)C[C@@H](O)CC(=O)O [Atorvastatin Ca, atorvastatin]
- blood triglycerides in comparison with the control group (in words) (blood triglycerides [2]; 50 mg/kg alone): a tendency to be lowered
- Reduction rate of blood triglycerides (%) (blood triglycerides [2]; 50 mg/kg orally once a day for 14 days): 7%
